# Test results from patent US20220211652A1, “USE OF AN RXR AGONIST IN TREATING HER2+ CANCERS” (Io Therapeutics, Inc, priority 2019, published 2022).
# Tests used:
# [1] = tested on: PPAR/RXR, FXR/RXR, or LXR/RXR; conditions: cited from earlier work
# PPAR/RXR = assay: Activation of permissive heterodimer PPAR/RXR; type: cell-based
# RARα = RARα (Homo sapiens, UniProt P10276); conditions: α isoform
# RXR homodimers = assay: Activation of RXR homodimers; type: cell-based
# RARβ = RARβ (Homo sapiens, UniProt P10826); conditions: β isoform
# Sequence of RARβ (P10826 whole entry, species assumed, canonical isoform): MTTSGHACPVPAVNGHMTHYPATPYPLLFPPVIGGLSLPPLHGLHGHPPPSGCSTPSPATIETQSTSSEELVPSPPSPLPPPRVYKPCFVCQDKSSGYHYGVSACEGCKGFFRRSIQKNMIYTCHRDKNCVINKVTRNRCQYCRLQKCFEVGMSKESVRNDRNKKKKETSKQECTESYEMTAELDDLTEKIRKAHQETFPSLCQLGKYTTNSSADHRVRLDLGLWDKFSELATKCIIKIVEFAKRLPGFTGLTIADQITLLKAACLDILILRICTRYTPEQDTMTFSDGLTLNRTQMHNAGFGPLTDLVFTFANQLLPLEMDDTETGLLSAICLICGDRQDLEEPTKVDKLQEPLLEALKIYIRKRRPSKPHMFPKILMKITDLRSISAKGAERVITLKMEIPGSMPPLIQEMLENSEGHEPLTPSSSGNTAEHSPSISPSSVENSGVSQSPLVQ
# LXR/RXR = assay: Activation of permissive heterodimer LXR/RXR; type: cell-based
# MCF7 cells = assay: Growth inhibition of MCF7 breast cancer cells, DAPI nuclei count; type: cell-based; conditions: Her2− MCF7 cell line, FIG. 1A; IRX4204 10-1000 nM, trastuzumab 0.1-10 μg/ml
# From the text: (§1) MCF7 is an ER^+ PR^+ Her2^− cell line. SkBr3 is an ER^− PR^− Her2^+ cell line. […] After a further 6 days, the cells were fixed with 4% paraformaldehyde in phosphate buffered saline (PBS).
# (§2) Additionally the panel of breast cancer cell lines was expanded to also include the ER^+ PR^+ Her2^+ cell line BT474 and the ER^+ PR^− Her2^+ cell line MDA-MB-361.
# RARγ = RARγ (Homo sapiens, UniProt P13631); conditions: γ isoform
# Sequence of RARγ (P13631 whole entry, species assumed, canonical isoform): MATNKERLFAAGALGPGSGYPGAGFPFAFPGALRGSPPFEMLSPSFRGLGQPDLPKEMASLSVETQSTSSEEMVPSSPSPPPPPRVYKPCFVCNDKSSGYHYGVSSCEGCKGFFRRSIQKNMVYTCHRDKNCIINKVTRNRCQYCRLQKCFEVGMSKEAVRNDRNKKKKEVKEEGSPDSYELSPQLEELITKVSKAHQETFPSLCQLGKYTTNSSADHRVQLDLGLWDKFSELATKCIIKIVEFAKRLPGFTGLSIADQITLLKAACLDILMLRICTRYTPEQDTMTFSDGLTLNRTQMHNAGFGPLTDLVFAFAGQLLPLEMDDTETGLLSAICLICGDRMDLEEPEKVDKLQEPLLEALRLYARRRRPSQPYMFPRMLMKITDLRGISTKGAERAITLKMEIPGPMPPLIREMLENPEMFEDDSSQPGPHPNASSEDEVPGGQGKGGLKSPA
# Nurr1/RXR heterodimer = assay: Activation of permissive heterodimer Nurr1/RXR; type: cell-based
# RAR/RXR = assay: Activation of non-permissive heterodimer RAR/RXR; type: cell-based
# SkBr3 cells = assay: Growth inhibition of SkBr3 breast cancer cells, DAPI nuclei count; type: cell-based; conditions: Her2+ SkBr3 cell line, FIG. 1B; IRX4204 10-1000 nM, trastuzumab 0.1-10 μg/ml
# From the text: as §1, §2
# FXR/RXR = assay: Activation of permissive heterodimer FXR/RXR; type: cell-based
# Sequence of RARα (P10276 whole entry, species assumed, canonical isoform): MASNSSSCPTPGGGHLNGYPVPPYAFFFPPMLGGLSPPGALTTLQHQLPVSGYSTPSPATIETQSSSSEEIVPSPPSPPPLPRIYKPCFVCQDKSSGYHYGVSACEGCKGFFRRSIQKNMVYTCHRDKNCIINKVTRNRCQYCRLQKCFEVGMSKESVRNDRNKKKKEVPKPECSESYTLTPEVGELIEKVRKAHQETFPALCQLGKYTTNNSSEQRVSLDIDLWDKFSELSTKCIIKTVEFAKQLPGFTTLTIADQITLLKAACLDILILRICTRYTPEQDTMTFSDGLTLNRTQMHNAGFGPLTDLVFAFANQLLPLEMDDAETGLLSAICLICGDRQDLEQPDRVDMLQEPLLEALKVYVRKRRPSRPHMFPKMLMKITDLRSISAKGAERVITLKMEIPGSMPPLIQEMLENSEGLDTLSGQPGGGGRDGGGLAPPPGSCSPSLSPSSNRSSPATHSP
SMILES,"activation of one or more of PPAR/RXR, FXR/RXR, or LXR/RXR (in words) [1]",activation of PPAR/RXR (in words) (PPAR/RXR),RAR EC10 (concentration effective to cause a 10% of maximal activation of the RAR) (RARα) [µM],activation of RXR homodimers (in words) (RXR homodimers),RAR EC10 (concentration effective to cause a 10% of maximal activation of the RAR) (RARβ) [µM],activation of LXR/RXR (in words) (LXR/RXR),growth inhibitory effect (in words) (MCF7 cells),RAR EC10 (concentration effective to cause a 10% of maximal activation of the RAR) (RARγ) [µM],activation of the Nurr1/RXR heterodimer (in words) (Nurr1/RXR heterodimer),activation of non-permissive heterodimers such as RAR/RXR (in words) (RAR/RXR),growth inhibitory effect (in words) (SkBr3 cells),activation of FXR/RXR (in words) (FXR/RXR)
Cc1cc2c(cc1C1(c3ccc(C(=O)O)cn3)CC1)C(C)(C)CCC2(C)C [LGD268],activates one or more,,,,,,,,,,,
"CC(/C=C/[C@@H]1C[C@]1(C)c1ccc2c(c1)C(C)(C)CCC2(C)C)=C\C(=O)O [IRX4204, 3,7-dimethyl-6(S),7(S)-methano,7-[1,1,4,4-tetramethyl-1,2,3,4-tetrahydron-aphth-7-yl]2(E), 4(E) heptadienoic acid]",,does not activate,0.3,specifically activate,0.2,does not activate,neither agent had more than marginal effect,0.2,specifically activates,does not activate,moderate growth inhibitory effect,does not activate
